Columns and labels:
[1] = tested on: A549 cells; experiment: Cell viability by MTT method in A549 cells; format: cell-based; set-up: concentration or dose not given beside the values; conditions: 72 hours treatment
[2] = biological target: T1, AIMP2-DX2 (Homo sapiens, UniProt Q13155); experiment: DX2-nanoluciferase assay (DX2 expression change) in transfected A549 cells; conditions: A549, 4 h
T1 sequence (Q13155 1-251 isoform Q13155-2): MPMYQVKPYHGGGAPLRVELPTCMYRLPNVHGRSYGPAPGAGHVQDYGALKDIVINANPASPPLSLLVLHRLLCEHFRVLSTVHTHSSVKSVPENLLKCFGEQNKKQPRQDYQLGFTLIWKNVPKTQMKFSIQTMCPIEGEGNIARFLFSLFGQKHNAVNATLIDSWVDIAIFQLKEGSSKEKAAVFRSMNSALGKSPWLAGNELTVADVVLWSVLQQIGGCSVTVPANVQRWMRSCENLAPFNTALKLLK
Method: After cloning DX2 into a plasmid expressing nanoluciferase, the plasmid was transfected into A549 cells. Transfected cells were seeded 1×10^4 per well in a 96-well plate and stabilized for 12 hours. […] Cell viability was measured by the MTT method after 72 hours of treatment with each concentration of the compound in A549 cells.

[3] = tested on: H460 cells; experiment: In vivo cancer growth inhibition in H460 xenograft animal model; set-up: species or system BALB/cAnCr female rats; conditions: 50 mg/kg intraperitoneally once every 2 days, 16 days
Method: FIG. 4 is a result of testing the cancer cell growth inhibitory effect of compound No. 55 and compound No. 89 among the compounds of the Formula 1 according to the present invention and the tumor distribution of the drug in the H460 xenograft animal model. Taxol was used as a positive control.
H460 cells (2×10^7) were subcutaneously implanted in 7-week-old BALB/cAnCr female […], and then Compound No. 55 or Compound No. 89 (50 mg/kg) and Taxol (10 mg/kg) were administered intraperitoneally once every 2 days. The drug was administered for 16 days, and the size of the tumor and the weight of the animal were measured during administration. After 16 days, the animals were sacrificed and the size and weight of the removed tumors were measured.

[4] = tested on: H460 cells; experiment: In vivo anti-cancer efficacy in mice transplanted with H460 cells; set-up: species or system mouse; conditions: 50 mg/kg intraperitoneally once every two days, 15 days
Method: FIGS. 3a to 3d are the results of observing the tumor growth while administering compound No. 63 (50 mg/kg) once every two days intraperitoneally for a total of 15 days to a mouse transplanted with H460 cells. (FIG. 3a: macroscopic observation of each mouse and tumor after the end of administration, FIG. 3b: tumor growth curve over time, FIG. 3c: the weight of each tumor obtained at the end of administration, FIG. 3d: change in body weight of animals during administration period).
Next, the anti-cancer efficacy of compound No. 63 was evaluated in a mouse model transplanted with H460 cells.
Specifically, the compound No. 63 was intraperitoneally administered to mice transplanted with H460 cells at 50 mg/kg, once every two days for a total of 15 days.

inhibition at 40 µM ([2]; read-out: DX-Nanoluciferase activity (40 μM), 40 μM, 4 hours treatment, A549 cells transfected with nanoluciferase-DX2, inhibitory effect on AIMP2-DX2 expression) [%] | inhibition at 10 µM ([2]; read-out: DX-Nanoluciferase activity (10 μM), 10 μM, 4 hours treatment, A549 cells transfected with nanoluciferase-DX2) [%] | Compound | Cell Viability (% inhibition) (A549) [1] [%] | body weight of the animal during treatment (side effect) [3] | cancer growth inhibitory effect ([3]; H460 xenograft) | body weight of the animals during administration [4] | tumor growth ([4]; H460 transplanted mice)
70.3 ± 3.23 | – | COc1ccc(-c2csc(NC(=O)[C@H](CC(C)C)NS(=O)(=O)c3ccc(C)cc3)n2)cc1 [Compound 55, (S)—N-(4-(4-methoxyphenyl)thiazol-2-yl)-4-methyl-2-(4-methylphenylsulfonamido)pentanamide] | 89.25 ± 2.03 | no change in the body weight | about 50% | – | –
– | – | COc1ccc(-c2csc(NC(=O)[C@H](Cc3c[nH]c4ccccc34)NS(=O)(=O)c3ccc(C)cc3)n2)cc1 [Compound 63, (S)-3-(1H-indol-3-yl)-N-(4-(4-methoxyphenyl)thiazol-2-yl)-2-(4-methylphenylsulfonamido)propanamide] | 86.53 ± 1.35 | – | – | no change in the body weight | significantly inhibited the growth of tumors
– | 38.1 ± 14.9 | Cc1ccc(S(=O)(=O)N[C@@H](Cc2c[nH]c3ccccc23)C(=O)NC(Cc2c[nH]c3ccccc23)C(=O)O)cc1 (stereo partly drawn) [Compound 226, 2-((S)-3-(1H-indol-3-yl)-2-(4-methylphenylsulfonamido)propanamido)-3-(1H-Indol-3-yl)propanoic acid] | 1.11 ± 7.23 | – | – | – | –

Source: patent publication US20220204497A1, “NOVEL COMPOUND HAVING ANTICANCER ACTIVITY, AND METHOD FOR PRODUCING SAME” (MEDICINAL BIOCONVERGENCE RESEARCH CENTER, priority 2019, published 2022)
